Organism: Rattus norvegicus
Format: toxicity, organism-based, Sprague-Dawley
Conditions: in vivo, po, route oral GAVAGE, vehicle 100 % SALINE; for ABSOLUTE EOSINOPHIL / ABSOLUTE LYMPHOCYTE / ABSOLUTE MONOCYTE / ABSOLUTE SEGMENTED NEUTROPHIL / BASOPHIL / EOSINOPHIL / ERYTHROCYTE COUNT / HEMATOCRIT / HEMOGLOBIN / LEUKOCYTE COUNT / LYMPHOCYTE / MEAN CORPUSCULAR HEMOGLOBIN / MEAN CORPUSCULAR HEMOGLOBIN CONCENTRATION / MONOCYTE / NEUTROPHIL / NUCLEATED RED BLOOD CELLS / PLATELET COUNT: tissue Blood; for ALANINE AMINOTRANSFERASE / ALBUMIN / ALKALINE PHOSPHATASE / ASPARTATE AMINOTRANSFERASE / BLOOD UREA NITROGEN / CARBON DIOXIDE / CHLORIDE / CHOLESTEROL / CREATINE PHOSPHOKINASE / CREATININE / GLUCOSE / LACTATE DEHYDROGENASE / LIPASE / PHOSPHORUS / POTASSIUM / SODIUM / TOTAL BILIRUBIN / TOTAL PROTEIN / URIC ACID: tissue Plasma
[1] = 0 mg/kg, 6 h, vehicle control, dose level Control, time 0.25 day
[2] = 0 mg/kg, 24 h, vehicle control, dose level Control, time 1 day
[3] = 700 mg/kg, 6 h, dose level Low, time 0.25 day

Description: DrugMatrix - Regimen: Single

With `CN(C)C=O` [DIMETHYLFORMAMIDE] the “ABSOLUTE EOSINOPHIL” value [1] was 24 CELLS/uL, the “ABSOLUTE LYMPHOCYTE” value [1] was 11958.17 CELLS/uL and the “ABSOLUTE MONOCYTE” value [1] was 398.83 CELLS/uL. For the same compound, the “ABSOLUTE SEGMENTED NEUTROPHIL” value [1] was 1252.33 CELLS/uL, the BASOPHIL [1] was 0% and the EOSINOPHIL [1] was 0.17%. The “ERYTHROCYTE COUNT” value [1] was 5.37 x10E6/uL, the HEMATOCRIT [1] was 35.6% and the HEMOGLOBIN [1] was 13.05 G/DL. For the same compound, the “LEUKOCYTE COUNT” value [1] was 13.63 x10E3/uL, the LYMPHOCYTE [1] was 87.67% and the “MEAN CORPUSCULAR HEMOGLOBIN” value [1] was 24.28 pg. The “MEAN CORPUSCULAR HEMOGLOBIN CONCENTRATION” value [1] was 36.67 G/DL, the MONOCYTE [1] was 2.83% and the NEUTROPHIL [1] was 9.33%. The “NUCLEATED RED BLOOD CELLS” value [1] was 0 /100WBC, the “PLATELET COUNT” value [1] was 947.83 x10E3/uL and the “ALANINE AMINOTRANSFERASE” value [1] was 51 u/L. For the same compound, the ALBUMIN [1] was 4.02 G/DL, the “ALKALINE PHOSPHATASE” value [1] was 312.33 u/L and the “ASPARTATE AMINOTRANSFERASE” value [1] was 98.17 u/L. The “BLOOD UREA NITROGEN” value [1] was 9.5 mg/dL, the “CARBON DIOXIDE” value [1] was 18.83 mmol/L and the CHLORIDE [1] was 103.5 MEQ/L. The CHOLESTEROL [1] was 69.5 mg/dL, the “CREATINE PHOSPHOKINASE” value [1] was 580.17 u/L and the CREATININE [1] was 0.53 mg/dL. For the same compound, the GLUCOSE [1] was 175.67 mg/dL, the “LACTATE DEHYDROGENASE” value [1] was 295.5 u/L and the LIPASE [1] was 8.17 u/L. The PHOSPHORUS [1] was 14.12 mg/dL, the POTASSIUM [1] was 5.77 MEQ/L and the SODIUM [1] was 144.13 MEQ/L. For the same compound, the “TOTAL BILIRUBIN” value [1] was 0.12 mg/dL, the “TOTAL PROTEIN” value [1] was 4.87 G/DL and the “URIC ACID” value [1] was 2.25 mg/dL. The “ABSOLUTE EOSINOPHIL” value [2] was 0 CELLS/uL, the “ABSOLUTE LYMPHOCYTE” value [2] was 12232.83 CELLS/uL and the “ABSOLUTE SEGMENTED NEUTROPHIL” value [2] was 780.17 CELLS/uL. For the same compound, the BASOPHIL [2] was 0%, the EOSINOPHIL [2] was 0% and the “ERYTHROCYTE COUNT” value [2] was 5.18 x10E6/uL. For the same compound, the HEMATOCRIT [2] was 33.48%, the HEMOGLOBIN [2] was 13.22 G/DL and the “LEUKOCYTE COUNT” value [2] was 13.03 x10E3/uL. For the same compound, the LYMPHOCYTE [2] was 93.33%, the “MEAN CORPUSCULAR HEMOGLOBIN” value [2] was 25.57 pg and the “MEAN CORPUSCULAR HEMOGLOBIN CONCENTRATION” value [2] was 39.52 G/DL. For the same compound, the MONOCYTE [2] was 0.17%, the NEUTROPHIL [2] was 6.5% and the “NUCLEATED RED BLOOD CELLS” value [2] was 0 /100WBC. For the same compound, the “PLATELET COUNT” value [2] was 931.5 x10E3/uL, the “ALANINE AMINOTRANSFERASE” value [2] was 60.83 u/L and the ALBUMIN [2] was 4.18 G/DL. For the same compound, the “ALKALINE PHOSPHATASE” value [2] was 283.33 u/L, the “ASPARTATE AMINOTRANSFERASE” value [2] was 80.5 u/L and the “BLOOD UREA NITROGEN” value [2] was 11.83 mg/dL. For the same compound, the “CARBON DIOXIDE” value [2] was 35.33 mmol/L, the CHLORIDE [2] was 98.5 MEQ/L and the CHOLESTEROL [2] was 80 mg/dL. For the same compound, the “CREATINE PHOSPHOKINASE” value [2] was 181.83 u/L, the CREATININE [2] was 0.2 mg/dL and the GLUCOSE [2] was 142.67 mg/dL. For the same compound, the “LACTATE DEHYDROGENASE” value [2] was 65.5 u/L, the LIPASE [2] was 9.83 u/L and the PHOSPHORUS [2] was 9.82 mg/dL. For the same compound, the POTASSIUM [2] was 5.69 MEQ/L, the SODIUM [2] was 143.35 MEQ/L and the “TOTAL BILIRUBIN” value [2] was 0.15 mg/dL. For the same compound, the “TOTAL PROTEIN” value [2] was 6.2 G/DL, the “URIC ACID” value [2] was 0.42 mg/dL and the “ABSOLUTE EOSINOPHIL” value [3] was 9.5 CELLS/uL. The “ABSOLUTE LYMPHOCYTE” value [3] was 11164.33 CELLS/uL, the “ABSOLUTE MONOCYTE” value [3] was 139.17 CELLS/uL and the “ABSOLUTE SEGMENTED NEUTROPHIL” value [3] was 1270.33 CELLS/uL. The BASOPHIL [3] was 0%, the EOSINOPHIL [3] was 0.17% and the “ERYTHROCYTE COUNT” value [3] was 5.55 x10E6/uL. The HEMATOCRIT [3] was 36.67%, the HEMOGLOBIN [3] was 12.92 G/DL and the “LEUKOCYTE COUNT” value [3] was 12.58 x10E3/uL. For the same compound, the LYMPHOCYTE [3] was 88.83%, the “MEAN CORPUSCULAR HEMOGLOBIN” value [3] was 23.45 pg and the “MEAN CORPUSCULAR HEMOGLOBIN CONCENTRATION” value [3] was 35.43 G/DL. For the same compound, the MONOCYTE [3] was 1%, the NEUTROPHIL [3] was 10% and the “NUCLEATED RED BLOOD CELLS” value [3] was 0 /100WBC. For the same compound, the “PLATELET COUNT” value [3] was 1098.83 x10E3/uL, the “ALANINE AMINOTRANSFERASE” value [3] was 66.17 u/L and the ALBUMIN [3] was 4.17 G/DL. The “ALKALINE PHOSPHATASE” value [3] was 259.5 u/L, the “ASPARTATE AMINOTRANSFERASE” value [3] was 125.5 u/L and the “BLOOD UREA NITROGEN” value [3] was 9.33 mg/dL. The “CARBON DIOXIDE” value [3] was 17.83 mmol/L, the CHLORIDE [3] was 103 MEQ/L and the CHOLESTEROL [3] was 67.67 mg/dL. For the same compound, the “CREATINE PHOSPHOKINASE” value [3] was 882.33 u/L, the CREATININE [3] was 0.3 mg/dL and the GLUCOSE [3] was 174.5 mg/dL. The “LACTATE DEHYDROGENASE” value [3] was 297.17 u/L, the LIPASE [3] was 9.83 u/L and the PHOSPHORUS [3] was 15.98 mg/dL. The POTASSIUM [3] was 6.92 MEQ/L, the SODIUM [3] was 144.05 MEQ/L and the “TOTAL BILIRUBIN” value [3] was 0.13 mg/dL. The “TOTAL PROTEIN” value [3] was 5.7 G/DL and the “URIC ACID” value [3] was 3.3 mg/dL.
